The source of these data is PubChem BioAssay AID602191 (Broad Institute, 2012).

Calls of active or inactive are those of the source.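 How the source made its calls: active means fitted curve reaches 40% activation at a concentration no higher than the top valid tested dose; inconclusive means flat fit between 30% and 70% activation, or poor fit; inactive means uptake decrease, flat fit within 30% of zero, the rest.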

In the experiment the target is Scavenger receptor class B member 1 (Mus musculus) (UniProt Q61009). In words: activators of SR-BI-mediated HDL uptake, dose response, cell-based, ldlA[mSR-BI] CHO, DiI fluorescence, cherry-pick (AID 602191).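 On AC40: potency of activators raising HDL uptake.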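 On activation (HDL uptake increase): 0% = median of DMSO wells and 100% = twice the DMSO signal.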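 On all read-outs here: cell fluorescence from internalized DiI-labeled HDL after washing.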 The note with it: ldlA[mSR-BI] CHO cells, 3 h; for activation (HDL uptake increase): at 35 µM (top of the series).
Scavenger receptor class B member 1 (Mus musculus), sequence (Q61009 whole entry, looked up): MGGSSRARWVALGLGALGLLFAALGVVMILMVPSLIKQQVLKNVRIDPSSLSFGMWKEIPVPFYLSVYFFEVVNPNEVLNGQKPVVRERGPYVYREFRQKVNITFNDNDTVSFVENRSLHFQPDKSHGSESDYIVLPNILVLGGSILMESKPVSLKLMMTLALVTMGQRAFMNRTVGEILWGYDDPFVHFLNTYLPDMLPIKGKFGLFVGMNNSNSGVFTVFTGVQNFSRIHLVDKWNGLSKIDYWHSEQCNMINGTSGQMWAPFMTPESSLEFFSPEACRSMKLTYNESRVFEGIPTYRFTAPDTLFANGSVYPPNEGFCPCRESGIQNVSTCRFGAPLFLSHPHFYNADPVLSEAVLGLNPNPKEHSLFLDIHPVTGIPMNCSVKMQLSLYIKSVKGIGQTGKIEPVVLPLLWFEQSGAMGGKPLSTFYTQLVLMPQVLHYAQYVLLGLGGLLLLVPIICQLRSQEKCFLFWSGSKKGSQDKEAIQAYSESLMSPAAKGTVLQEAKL

`O=C(NCc1cccs1)C1CCCN(C(=O)Nc2ccccc2)C1` (stereo not given): the activation (HDL uptake increase) is 7.76% (inactive). For the molecule `O=S(=O)(c1ccccc1)N1CCN(Cc2c(O)ccc3ccccc23)CC1`, the activation (HDL uptake increase) is -12% (inactive). For the molecule `C[C@H](CO)N1C[C@H](C)[C@H](CN(C)Cc2ccc(-c3ccccc3)cc2)Oc2ccc(NS(=O)(=O)c3ccccc3)cc2CC1=O`, the activation (HDL uptake increase) was 44.6% (inactive). On the same count and under the same terms, to `Cc1ccc(C2(CC(=O)N3CCCC3)CCOC(C(C)C)C2)cc1` (stereo not given) belongs -13.4% (inactive); to `COC(=O)c1oc2ccc(Br)cc2c1NC(=O)CN1CCN(C)CC1`, 4.26% (inactive); to `O=C(COc1ccc([N+](=O)[O-])cc1)NCc1cccnc1`, -4.82% (inactive). The same measure, in the same setting: the value for `Cc1cc(Cl)ccc1OCC(=O)OCC(=O)N1CCC(C(N)=O)CC1` was -16.7% (inactive); that for `CCCCN(C(=O)c1cc2c(s1)CCC2)c1c(N)n(CC(C)C)c(=O)[nH]c1=O` was -6.82% (inactive).

As for `O=C1NC[C@H](Cc2ccccc2)N(C[C@H]2CCCN2C[C@H](Cc2ccccc2)N2C[C@H](Cc3ccccc3)N(CC3CCCCC3)C(=O)C2=O)C1=O`, the activation (HDL uptake increase) was 11.2% (inactive). Turning to `CCOc1ccc(S(=O)(=O)NCCc2cn3ccccc3n2)cc1`, the activation (HDL uptake increase) is 2.16% (inactive). Regarding `Cc1ccc(S(=O)(=O)N2CCC(=O)N(CCOCc3cccc(F)c3)CC2)cc1`, the activation (HDL uptake increase) was 5.46% (inactive). Same read-out and setting: to `COc1ccc(N2CCN(c3oc(-c4ccco4)nc3C#N)CC2)cc1` belongs 1.24% (inactive); to `NNC(=O)CNC(c1ccccc1)c1cc(Br)ccc1NC(=O)CCN1CCOCC1` (stereo not given), -9.57% (inactive); to `O=S(=O)(c1ccccc1F)N1CCN(Cc2cc3c(cc2Br)OCCO3)CC1`, -16.4% (inactive). Consider `O=S(=O)(NCCc1cn2ccccc2n1)c1ccc(-c2ccccc2)cc1`, for which the activation (HDL uptake increase) was -1.66% (inactive).

On to `CC(=O)Nc1ccc(OC(=O)c2ccco2)cc1`, for which the activation (HDL uptake increase) is -1.69% (inactive). `O=C(CCN1C(=O)[C@@H]2Cc3ccccc3CN2C1=O)N[C@@H](C(=O)O)c1ccccc1`: the activation (HDL uptake increase) was -2.01% (inactive). As to `COc1ccc(CC(=O)N(C)Cc2ccc(C(C)(C)C)cc2)cc1S(=O)(=O)N1CCOCC1`, the AC40 was > 35 µM (inactive). On to `Cc1ccc(S(=O)(=O)c2cc(OC(=O)c3ccco3)ccc2OC(=O)c2ccco2)cc1`, for which the activation (HDL uptake increase) was -6.59% (inactive). Take `Cn1c(=O)[nH]c(=O)c2c1nc(N1CCN(c3ccccc3)CC1)n2CCSc1ncccn1`: the activation (HDL uptake increase) is 2.78% (inactive). Still for that read-out and setting: to `O=C(COC(=O)CNC(=O)c1ccc(Cl)cc1Cl)NCc1ccco1` belongs -5.97% (inactive); to `CN1CCN(CCC(=O)N2c3ccccc3Sc3ccc(Cl)cc32)CC1`, -3.2% (inactive).

Turning to `Cc1c(CCOC(=O)C23CC4(C)CC(C)(CC(C)(C4)C2)C3)sc[n+]1CC(=O)c1ccccc1`, the AC40 is > 35 µM (inactive). Regarding `O=C1NCCCC1C(=O)NCCNC(=O)C(F)(F)F` (stereo not given), the activation (HDL uptake increase) is -6.55% (inactive). For `Cc1ccc2nc(N(CCCN(C)C)C(=O)c3ccc(S(=O)(=O)N4CCOCC4)cc3)sc2c1`, the activation (HDL uptake increase) is -2.75% (inactive). As to `Cc1ccc(CNC(=O)CCNC(=O)c2ccc(Br)o2)cc1`, the activation (HDL uptake increase) was -10.8% (inactive). On to `COc1ccc(C(=O)Nc2nnc(SCC(=O)Nc3ccc(NC(C)=O)cc3)s2)c(OC)c1`, for which the activation (HDL uptake increase) was -6.9% (inactive).

As to `CC1CCC(NC(=O)CCNS(=O)(=O)c2ccccc2)CC1` (stereo not given), the activation (HDL uptake increase) is 10.2% (inactive). In the case of `CCN(CC(=O)Nc1c(F)cccc1F)C(=O)CCCc1nc2ccccc2c(=O)[nH]1`, the activation (HDL uptake increase) was -5.94% (inactive). Turning to `COc1ccc(-n2nc(C(=O)NCC(=O)O)c3ccccc3c2=O)cc1`, the activation (HDL uptake increase) is 11.7% (inactive). For `CC(=O)N1C2CCCCC2S[C@H]2CCCCC21` (stereo not given in full), the activation (HDL uptake increase) was -4.16% (inactive). On the same count and under the same terms, the value for `Cc1ncc(CN2CCC(n3nccc3NC(=O)c3ccccc3)CC2)s1` was 8.83% (inactive); that for `O=C(C1CCC(=O)N(C2CCCC2)C1)N1CCN(Cc2cccc(Cl)c2)CC1` (stereo not given) was -5.02% (inactive); that for `O=C(CN1CCN(S(=O)(=O)c2ccc(Cl)s2)CC1)NCc1ccc(Cl)cc1` was -4.32% (inactive).

On to `CC(C)CCNC(=O)c1onc(CSc2ccncc2)c1C(=O)NCCC(C)C`, for which the activation (HDL uptake increase) is 3.64% (inactive). On the same count and under the same terms, the value for `CC1CCc2c(C(=O)NCCN3CCOCC3)csc2C1` (stereo not given) was -15.7% (inactive); that for `O=C1NC2NC(=O)N(C(Cc3ccccc3)C(=O)O)C2N1` (stereo not given) was -4.43% (inactive); that for `CC1(C)CC(=O)C2=C(C1)N(CC1CCCO1)C(=O)C2(O)C(F)(F)F` (stereo not given) was 8.29% (inactive).

Consider `O=C(OCc1ccccc1)c1cccc(-c2nnc(-c3ccccc3)o2)c1`, for which the activation (HDL uptake increase) is -15.9% (inactive).

Consider `O=C(CN1C(=O)NC2(CCCC2)C1=O)Nc1ccc(Cl)c(C(F)(F)F)c1`, for which the activation (HDL uptake increase) is -11.2% (inactive). Same read-out and setting: the value for `COc1ccc(C(=O)N2CCNC(=O)C2)cc1S(=O)(=O)Nc1ccc(Br)cc1` was -3.81% (inactive). As to `COc1ccccc1OCCc1nnc(N)s1`, the AC40 is > 35 µM (inactive). For the molecule `O=C(c1ccc(NS(=O)(=O)c2cccc([N+](=O)[O-])c2)cc1)N1CCN(C(=O)c2ccco2)CC1`, the activation (HDL uptake increase) is -14.9% (inactive). Take `CCN1CCN(C(=O)CCc2nc3ccccc3c(=O)[nH]2)CC1`: the activation (HDL uptake increase) is 9.34% (inactive). On the same count and under the same terms, to `COC1CCCN(Cc2c(C(=O)N3CCN(C4CCCCC4)CC3)nc3ccccn23)C1` (stereo not given) belongs -7.41% (inactive). The same measure, in the same setting: to `CN1CCN(C(=O)C2CCN(S(=O)(=O)c3ccc4c(c3)oc(=O)n4C)CC2)CC1` belongs -0.287% (inactive). With `CCCn1c(N)c(N(CCOC)C(=O)c2ccc(S(=O)(=O)N3CCOCC3)cc2)c(=O)[nH]c1=O`, the activation (HDL uptake increase) was -4.96% (inactive). The same measure, in the same setting: the value for `NC(=O)C1CCN(C(=O)C2CC(=O)N(c3ccc4c(c3)OCCO4)C2)CC1` (stereo not given) was -4.66% (inactive). With `CC(C)CCNCC(=O)NC(c1ccccc1)c1ccccc1`, the activation (HDL uptake increase) was -2.56% (inactive). Same read-out and setting: to `Cc1c(C)c2ccc(OCC(=O)NC(Cc3c[nH]c4ccc(O)cc34)C(=O)O)c(C)c2oc1=O` (stereo not given) belongs -0.695% (inactive). As to `CNC(=O)c1ccc(N(Cc2ccccc2C)S(C)(=O)=O)cc1`, the activation (HDL uptake increase) is -9.16% (inactive). Still for that read-out and setting: to `COc1ccc(/C(O)=C2/C(=O)C(=O)N(CCN3CCOCC3)C2c2ccccn2)cc1` (stereo not given) belongs -1.9% (inactive); to `N#CCCN1CCN(S(=O)(=O)c2ccc(C3CCCCC3)cc2)CC1`, 12% (inactive). As to `O=C(CC1C(=O)NCCN1Cc1ccc(Cl)c(F)c1)NC1CCCCC1` (stereo not given), the activation (HDL uptake increase) is -11.9% (inactive). Same read-out and setting: the value for `COc1ccc(-n2nc(C(=O)N3CCN(Cc4ccc5c(c4)OCO5)CC3)c3ccccc3c2=O)cc1` was -5.05% (inactive).
